Measurements: patent US8835440B2, “Cyclic pyrimidin-4-carboxamides as CCR2 receptor antagonists for treatment of inflammation, asthma and COPD” (Boehringer Ingelheim International GmbH, priority 2008, dated 2014)

Target: T1, CCR2 (Homo sapiens, UniProt P41597)
T1 construct: Membranes were prepared from THP-1 cells; endogenous in cells; host or cells: THP-1 cells (membrane preparation)
T1 sequence (P41597 1-360 isoform P41597-2): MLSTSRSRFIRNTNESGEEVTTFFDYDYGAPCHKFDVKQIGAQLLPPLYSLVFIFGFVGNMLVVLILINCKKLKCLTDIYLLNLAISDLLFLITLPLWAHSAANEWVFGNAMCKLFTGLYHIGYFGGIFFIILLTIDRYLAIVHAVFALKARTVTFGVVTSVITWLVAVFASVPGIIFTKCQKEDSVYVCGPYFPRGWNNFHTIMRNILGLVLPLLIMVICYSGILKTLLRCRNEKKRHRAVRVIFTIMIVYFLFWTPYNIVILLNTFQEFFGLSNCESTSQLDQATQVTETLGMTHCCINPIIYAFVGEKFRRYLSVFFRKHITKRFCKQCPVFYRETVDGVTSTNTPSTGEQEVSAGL
Assay: CCR2 receptor membrane binding assay ([125I]MCP-1, THP-1 cell membranes, SPA beads)
Conditions: for remaining activity at 10 µM: @ 10 μM test compound, THP-1 membranes, read-out: CCR2 % ctrl @ 10 μM; for Ki: dissociation constant hKi, [125I]MCP-1 binding to THP-1 membranes
Experimental: The above exemplary substances have been tested for binding to CCR2 using a binding assay as outlined herein below:
THP-1 cells (human acute monocytic leukaemia cells) were cultured under standardized conditions at 37° C. and 5% CO2 in a humidified incubator. THP-1 cells were cultivated in RPMI 1640 medium (Gibco 21875) containing 1% MEM-NEAA (Gibso 11140) 2 mM L-glutamine, 1.5 g/L sodium bicarbonate, 4.5 g/L glucose, 10 mM HEPES and 1.0 mM sodium pyruvate, 90%; 10% fetal calf serum (FCS Gibco 10500-064).
Membranes were prepared from THP-1 cells. THP-1 cells were centrifuged at 300×g at 4° C. for 10 min. The cell pellet was resuspendet in Phosphate Buffer Saline (PBS, including 10 μM Pefabloc and a protease inhibitor mix ‘complete’, Boehringer Mannheim (1 tablet/50 ml)), to a concentration of […]. The membrane preparation was performed by disrupting the cells by nitrogen […] (at 50 bar, for 1 h) in a “Nitrogen Bombe” (Parr Instrument). Cell debris was removed by centrifugation (800×g at 4° C., 1 min). The supernatant was centrifuged at 80000×g, 4° C. for 30 min to sediment the cell membranes. Usually 50 mg of protein (Bradford assay) were yielded from 1×10E9 cells. The membranes were resuspendet in 25 mM HEPES, 25 mM MgCl2, 1 mM CaCl2, 10% Glycerine for storage in aliquots at −80° C. in 25 mM HEPES, 25 mM MgCl2, 1 mM CaCl2, 10% Glycerine and stored at −80° C.
Receptor Membrane Binding Assay:
Perkin Elmer NEX 332 Jod 125 MCP-1, Stock: 2200 Ci/mmol solved in 2000 μl assay buffer, stored at −20° C. THP-1 membrane were adjusted with 25 mM HEPES, pH 7.2; 5 mM MgCl2; 0.5 mM CaCl2; 0.2% BSA assay buffer to a concentration of […]. Amersham Biosciences PVT-WGA Beads (RPNQ0001) were adjusted with assay buffer to a concentration of 0.24 mg/30 μl. For preparation of the membrane-bead-suspension membranes and beads were incubated for 30 min at RT under rotation (60 rpm) with a ratio of 1:2. Test compounds dissolved in 100% DMSO to a concentration of 10 mM and are further diluted with 100% DMSO to 1 mM. All additional compound dilutions were obtained with assay buffer, final 1% DMSO. Compounds, membrane-bead-suspension and [125I]MCP-1 (ca. 25000 cpm/10 μl) were incubated. Bound radioactivity was determined by scintillation counter after 8 h. Determination of affinity of test compounds (dissociation constant hKi) is calculated by iterative fitting of experimental data using the “easy sys” program, which is based on law of mass action (Schittkowski K. (1994), Numerische Mathematik, Vol. 68, 129-142).

`CNC(=O)[C@@H]1CCN(C2CCN(C(=O)c3ncnc(NCc4ccc(Cl)c(Cl)c4)c3C)CC2)C1` [Example 260] was tested, and the remaining activity at 10 µM was 20% and the Ki was 493 nM.

For `Cc1c(NCc2ccc(Cl)c(F)c2)ncnc1C(=O)N1CCC(N2CCCCC2)CC1` [Example 134], the remaining activity at 10 µM was 23% and the Ki was 399 nM.

`CNC(=O)C[C@@H]1CCCN1C1CCN(C(=O)c2ncnc(NCc3ccc(C(C)(C)C)cc3)c2C)CC1` [Example 215] showed a remaining activity at 10 µM of 42% and a Ki of 2150 nM.

Molecule `Cc1c(NCC2CCCC(c3cccc(F)c3)C2)ncnc1C(=O)N1CCC(N2CCC(N(C)S(C)(=O)=O)CC2)CC1` (stereo not shown) [Example 159db] has a Ki of 16 nM.

For `Cc1nc(NC[C@@H]2CCC[C@H](c3ccc(C)o3)C2)c(C)c(C(=O)N2CCC(N3CCC(N(C)S(C)(=O)=O)CC3)CC2)n1` [Example 159cc], the Ki was 10 nM.

In the case of `CNC(=O)C1CCN(C2CCN(C(=O)c3ncnc(NCc4ccc(Cl)c(Cl)c4)c3C)CC2)CC1` [Example 186], the remaining activity at 10 µM is reported as 8% and the Ki is reported as 78 nM.

Molecule `Cc1c(OCc2ccc(C(C)(C)C)cc2)ncnc1C(=O)N1CCC(N2CCC(NS(C)(=O)=O)CC2)CC1` [Example 299] has a remaining activity at 10 µM of 6% and a Ki of 70 nM.

In the case of `Cc1c(NCC2CCC(c3ccc(Cl)cc3)O2)ncnc1C(=O)N1CCC(N2CCC(N(C)S(C)(=O)=O)CC2)CC1` (stereo not shown) [Example 159ab], the Ki is reported as 27 nM.

In the case of `CCN(C1CCN(C2CCN(C(=O)c3ncnc(NCc4ccc(C(C)(C)C)cc4)c3C)CC2)CC1)S(C)(=O)=O` [Example 206], the remaining activity at 10 µM is reported as 3% and the Ki is reported as 44 nM.

Work on `Cc1nc(NCc2ccc(Cl)c(F)c2)c(C)c(C(=O)N2CCC(N3CCC(N(C)S(C)(=O)=O)CC3)CC2)n1` [Example 80] yielded a remaining activity at 10 µM of 7% and a Ki of 53 nM.

`Cc1cc(COc2ncnc(C(=O)N3CCC(N4CCC(N(C)S(C)(=O)=O)CC4)CC3)c2C)ccc1Cl` [Example 292] gave a remaining activity at 10 µM of 15% and a Ki of 136 nM.

Molecule `Cc1c(NCCc2ccc(Cl)c(Cl)c2)ncnc1C(=O)N1CCC(N2CCC(O)CC2)CC1` [Example 3] has a remaining activity at 10 µM of 14% and a Ki of 204 nM.

For `COC1CCN(C2CCN(C(=O)c3ncnc(NCC4CCN(c5ccccc5)CC4)c3C)CC2)CC1` [Example 96], the remaining activity at 10 µM was 21% and the Ki was 939 nM.

Work on `Cc1c(NCc2ccc(C(C)(C)C)cc2)ncnc1C(=O)N1CCC(N(C)C2CC(C)OC(C)C2)CC1` (stereo not shown) [Example 275c] yielded a remaining activity at 10 µM of 38% and a Ki of 2930 nM.

`Cc1c(NCc2ccc(-c3ccccc3)cc2)ncnc1C(=O)N1CCC(N2CCC(O)CC2)CC1` [Example 101] gave a remaining activity at 10 µM of 35% and a Ki of 986 nM.

`CCS(=O)(=O)N(C)C1CCN(C2CCN(C(=O)c3ncnc(NCC4CCCN(c5ccccc5)C4)c3C)CC2)CC1` (stereo not shown) [Example 38] showed a remaining activity at 10 µM of 13% and a Ki of 69 nM.

`COC1CN(C(=O)c2ncnc(NCc3ccc(C(C)(C)C)cc3)c2C)CCC1N1CCC(N(C)S(C)(=O)=O)CC1` (stereo not shown) [Example 263] showed a remaining activity at 10 µM of 27% and a Ki of 1970 nM.

With `Cc1c(NCc2ccc(C(C)(C)C)cc2)ncnc1C(=O)N1CCC(N2CCC(Oc3ccc(F)c(F)c3)CC2)CC1` [Example 203] the remaining activity at 10 µM was 11% and the Ki was 641 nM.

For `Cc1c(NCc2ccc(Cl)c(Cl)c2)ncnc1C(=O)N1CCC(N2CCC(NS(=O)(=O)C(C)C)CC2)CC1` [Example 197], the remaining activity at 10 µM was 4% and the Ki was 33 nM.

With `Cc1c(NCC2CCCC(c3ccc(F)cc3)C2)ncnc1C(=O)N1CCC(N2CCC(N(C)S(C)(=O)=O)CC2)CC1` (stereo not shown) [Example 159z] the Ki was 11 nM.

Work on `Cc1c(NCc2coc(-c3ccccc3)c2)ncnc1C(=O)N1CCC(N2CCC(N(C)S(C)(=O)=O)CC2)CC1` [Example 159mb] yielded a Ki of 14 nM.

`Cc1c(NCc2cccc(-c3ccccc3)c2)ncnc1C(=O)N1CCC(N2CCC(O)CC2)CC1` [Example 102] showed a remaining activity at 10 µM of 15% and a Ki of 224 nM.

With `Cc1c(NCCc2ccccc2)ncnc1C(=O)N1CCC(N2CCC(O)CC2)CC1` [Example 99] the remaining activity at 10 µM was 32% and the Ki was 1830 nM.

Work on `Cc1c(NCc2ccc(Cl)cc2)ncnc1C(=O)N1CCC(N2CCC(N(C)S(C)(=O)=O)CC2)CC1` [Example 49] yielded a remaining activity at 10 µM of 7% and a Ki of 97 nM.

Molecule `Cc1noc(C2CCN(C3CCN(C(=O)c4ncnc(NCc5ccc(C(C)(C)C)cc5)c4C)CC3)CC2)n1` [Example 213] has a remaining activity at 10 µM of 14% and a Ki of 430 nM.

With `CCc1c(NCCc2ccc(Cl)c(Cl)c2)ncnc1C(=O)N1CCC(N2CCOCC2)CC1` [Example 281] the remaining activity at 10 µM was 24% and the Ki was 1010 nM.

With `CNC(=O)C1CCN(C2CCN(C(=O)c3nc(C)nc(NCc4ccc(C(C)(C)C)cc4)c3C)CC2)CC1` [Example 248] the remaining activity at 10 µM was 17%.

Work on `Cc1c(OCc2ccc(C#N)cc2)ncnc1C(=O)N1CCC(N2CCC(N(C)S(C)(=O)=O)CC2)CC1` [Example 293] yielded a remaining activity at 10 µM of 27% and a Ki of 717 nM.

For `Cc1nc(NC[C@H]2CC[C@H](c3ccc(Cl)cc3)O2)c(C)c(C(=O)N2CCC(N3CCC(N(C)S(C)(=O)=O)CC3)CC2)n1` [Example 159ua], the Ki was 23 nM.

With `CNC(=O)[C@@H]1CCN(C2CCN(C(=O)c3ncnc(NCc4ccc(Cl)c(F)c4)c3C)CC2)C1` [Example 78] the remaining activity at 10 µM was 28% and the Ki was 740 nM.

`Cc1c(NCCc2ccc(F)c(F)c2)ncnc1C(=O)N1CCC(N2CCCCC2)CC1` [Example 132] showed a remaining activity at 10 µM of 31% and a Ki of 672 nM.

`Cc1c(NC[C@H]2CC[C@H](c3cccc(C(F)(F)F)c3)O2)ncnc1C(=O)N1CCC(N2CCC(N(C)S(C)(=O)=O)CC2)CC1` [Example 159ha] gave a Ki of 27 nM.

For `Cc1c(NCc2ccc(C(C)(C)C)cc2)ncnc1C(=O)N1CCC(N2CCOC(C)C2)CC1` (stereo not shown) [Example 209], the remaining activity at 10 µM was 7% and the Ki was 177 nM.

In the case of `Cc1c(NCCc2cccc(Cl)c2)ncnc1C(=O)N1CCC(N2CCCCC2)CC1` [Example 139], the remaining activity at 10 µM is reported as 9% and the Ki is reported as 443 nM.

Work on `Cc1cccc(C2CCC(CNc3ncnc(C(=O)N4CCC(N5CCC(N(C)S(C)(=O)=O)CC5)CC4)c3C)O2)c1` (stereo not shown) [Example 159ra] yielded a Ki of 22 nM.

`Cc1c(NCC2CCC(c3ccc(C(F)(F)F)cc3)O2)ncnc1C(=O)N1CCC(N2CCC(N(C)S(C)(=O)=O)CC2)CC1` (stereo not shown) [Example 159hb] gave a Ki of 20 nM.

`Cc1c(NCC2Cc3ccccc32)ncnc1C(=O)N1CCC(N2CCC(O)CC2)CC1` (stereo not shown) [Example 26] showed a remaining activity at 10 µM of 30% and a Ki of 914 nM.

In the case of `Cc1c(NCc2ccc(C(F)(F)F)c(Cl)c2)ncnc1C(=O)N1CCC(N2CCC(NS(C)(=O)=O)CC2)CC1` [Example 75], the remaining activity at 10 µM is reported as 7% and the Ki is reported as 67 nM.

Molecule `Cc1c(NCC2CCCC(C(C)C)C2)ncnc1C(=O)N1CCC(N2CCC(N(C)S(C)(=O)=O)CC2)CC1` (stereo not shown) [Example 159zb] has a Ki of 15 nM.

For `CCS(=O)(=O)N(C)C1CCN(C2CCN(C(=O)c3ncnc(NCc4ccc(C(C)C)cc4)c3C)CC2)CC1` [Example 34], the remaining activity at 10 µM was 4% and the Ki was 62 nM.

With `COC1COCCC1NC1CCN(C(=O)c2ncnc(NCc3ccc(C(C)(C)C)cc3)c2C)CC1` (stereo not shown) [Example 228c] the remaining activity at 10 µM was 0% and the Ki was 29 nM.

For `Cc1nc(NCC2CCN(c3ccccc3)C2)c(C)c(C(=O)N2CCC(N3CCC(N(C)S(C)(=O)=O)CC3)CC2)n1` (stereo not shown) [Example 84], the remaining activity at 10 µM was 4% and the Ki was 69 nM.

`Cc1c(NCc2cccc(-c3ccccc3)c2)cccc1C(=O)N1CCC(N2CCC(O)CC2)CC1` [Example 283] showed a remaining activity at 10 µM of 48% and a Ki of 4420 nM.

`CNC(=O)C1CCN(C2CCN(C(=O)c3ncnc(NCC4CCN(c5ccccc5)C4)c3C)CC2)CC1` (stereo not shown) [Example 93] showed a remaining activity at 10 µM of 6% and a Ki of 123 nM.

`Cc1c(NCCc2ccc(Cl)c(Cl)c2)ncnc1C(=O)N1CCC(N2CCOCC2)CC1` [Example 279] showed a remaining activity at 10 µM of 9% and a Ki of 192 nM.
